Data taken from US20110105550A1 (SALIX PHARMACEUTICALS, LTD., priority 2008, published 2011).
Entries after “also recorded” stand apart in the source; their conditions may differ. Values belong to the compound of their own block, whether it stands above or below them.

What was measured:
Format in all cases: physicochemical
[1] = Stressing under various relative humidities (RH), solid form by XRPD; conditions: for RH stability: solid form after exposure, 58% RH / RH stability: solid form after exposure, 75% RH: duration not printed in Table 1, am = amorphous
Excerpt: The jar was sealed and stored at either ambient temperature or in an oven at elevated temperature.

[2] = Rifaximin drying experiments, solid form by XRPD
[3] = Vapor stressing / vapor diffusion of amorphous rifaximin; conditions: for Form obtained in vapor diffusion experiment: water as antisolvent
Method: (§1) Vapor stressing experiments were done on amorphous material from two preparations: lyophilization from p-dioxane:water 1:1 and crash precipitation from ethyl acetate with heptane. […] The majority of the stressed samples appeared as clear red solutions after 6 days. Those solutions were placed in vials of antisolvent for vapor diffusion. Dry and wet milling experiments were conducted on amorphous materials from the two preparations mentioned above. Amorphous materials were recovered from the dry milling experiments.

[4] = Dynamic vapor sorption/desorption (DVS) of amorphous preparations
Method: Based on the data, relative humidity stressing studies of the two amorphous materials at 40° C./75% RH are recommended.

[5] = Automated moisture sorption/desorption (moisture balance); conditions: for wt loss from 95 to 5% RH: desorption 95 to 5% RH; for Hygroscopicity: moisture balance; for wt gain from 5 to 95% RH: sorption 5 to 95% RH; for Post-moisture sorption/desorption XRPD form: sorption from 5% RH to 95% RH, desorption from 95% RH to 5% RH
Method: Moisture sorption/desorption data were collected on a VTI SGA-100 Vapor Sorption Analyzer. Sorption and desorption data were collected over a range of 5% to 95% relative humidity (RH) at 10% RH intervals under a nitrogen purge. Samples were not dried prior to analysis. Equilibrium criteria used for analysis were less than 0.0100% weight change in 5 minutes, with a maximum equilibration time of 3 hours if the weight criterion was not met. Data were not corrected for the initial moisture content of the samples. NaCl and PVP were used as calibration standards.

[6] = Milling experiments for amorphous materials; conditions: 10 min. at 30 Hz, scraped sides, 10 min. at 30 Hz (dry milling)
Method: as §1
A solid sample of rifaximin was charged to a milling container with a milling ball. Samples were milled for 5 or 15 minute intervals (2×5 minutes, 2×15 minutes, and 3×15 minutes) at 30 Hz using a Retsch MM200 mixer mill. Solids were scraped from the sides of the vial after each interval.

[7] = first sample of Table 3 (by elimination: lyophilization in p-dioxane:water 1:1)
[8] = second sample of Table 3 (crash precipitation from ethyl acetate with heptane)

Structure (SMILES): CO[C@H]1/C=C/O[C@@]2(C)Oc3c(C)c(O)c4c(O)c(c5c(nc6cc(C)ccn65)c4c3C2=O)NC(=O)/C(C)=C\C=C\[C@H](C)[C@H](O)[C@@H](C)[C@@H](O)[C@@H](C)[C@H](OC(C)=O)[C@@H]1C [Form β-2]
Final Form (XRPD) ([1]; under N2 atmosphere, 20% RH, 3 days): α^d and α
XRPD Form after drying ([2]; vac oven, 40° C., 1 day, listed as β-2): α dry
Solid form after vacuum drying ([2]; vacuum dried (Table 1 column), listed as β-2): α dry

Structure (SMILES): CO[C@H]1/C=C/O[C@@]2(C)Oc3c(C)c(O)c4c(O)c(c5c(nc6cc(C)ccn65)c4c3C2=O)NC(=O)/C(C)=C\C=C\[C@H](C)[C@H](O)[C@@H](C)[C@@H](O)[C@@H](C)[C@H](OC(C)=O)[C@@H]1C [Form δ, reference compound]
Final Form (XRPD) ([1]; P2O5, 3 days): ε dry

Structure (SMILES): CO[C@H]1/C=C/O[C@@]2(C)Oc3c(C)c(O)c4c(O)c(c5c(nc6cc(C)ccn65)c4c3C2=O)NC(=O)/C(C)=C\C=C\[C@H](C)[C@H](O)[C@@H](C)[C@@H](O)[C@@H](C)[C@H](OC(C)=O)[C@@H]1C [Form γ, reference compound]
XRPD Form after drying ([2]; vac oven, ambient, 1 day): remained unchanged
wt loss from 95 to 5% RH [5]: 11.7%
wt loss upon equilibration at 5% RH [5]: 2.4%
Hygroscopicity [5]: hygroscopic
wt gain from 5 to 95% RH [5]: 10.8%

Structure (SMILES): CO[C@H]1/C=C/O[C@@]2(C)Oc3c(C)c(O)c4c(O)c(c5c(nc6cc(C)ccn65)c4c3C2=O)NC(=O)/C(C)=C\C=C\[C@H](C)[C@H](O)[C@@H](C)[C@@H](O)[C@@H](C)[C@H](OC(C)=O)[C@@H]1C [Form β-1]
Final Form (XRPD) ([1]; 33% RH, 4 days): β
Final Form (XRPD) ([1]; 58% RH, 3 days): β + peak @4.87 °2θ
RH stability: solid form after exposure, 58% RH ([1]; 58% RH, listed as β-1): β + pk
Final Form (XRPD) ([1]; 75% RH, 3 days): β
RH stability: solid form after exposure, 75% RH ([1]; 75% RH, listed as β-1): β
Final Form (XRPD) ([1]; 94% RH, 3 days): β
RH stability: solid form after exposure, 94% RH ([1]; 94% RH, duration not given): β

Structure (SMILES): CO[C@H]1/C=C/O[C@@]2(C)Oc3c(C)c(O)c4c(O)c(c5c(nc6cc(C)ccn65)c4c3C2=O)NC(=O)/C(C)=C\C=C\[C@H](C)[C@H](O)[C@@H](C)[C@@H](O)[C@@H](C)[C@H](OC(C)=O)[C@@H]1C [Form ε, reference compound]
XRPD Form after drying ([2]; vac oven 60-65° C., 3 days, listed as ε): ε dry

Structure (SMILES): CO[C@H]1/C=C/O[C@@]2(C)Oc3c(C)c(O)c4c(O)c(c5c(nc6cc(C)ccn65)c4c3C2=O)NC(=O)/C(C)=C\C=C\[C@H](C)[C@H](O)[C@@H](C)[C@@H](O)[C@@H](C)[C@H](OC(C)=O)[C@@H]1C [Form α-dry]
Final Form (XRPD) ([1]; 33% RH, 2 days): α
Final Form (XRPD) ([1]; 33% RH, 7 days): α
Final Form (XRPD) ([1]; 43% RH, 4 days): α + β
Final Form (XRPD) ([1]; 43% RH, 11 days): β + (α)
Final Form (XRPD) ([1]; 58% RH, 2 days): β
RH stability: solid form after exposure, 58% RH ([1]; 58% RH, listed as α dry): β
Final Form (XRPD) ([1]; 75% RH, 2 days): β
RH stability: solid form after exposure, 75% RH ([1]; 75% RH, listed as α dry): β
Final Form (XRPD) ([1]; 94% RH, 2 days): β
XRPD Form after drying ([2]; vac oven 50° C., 1 day): α dry
XRPD Form after drying ([2]; vac oven 50° C., 1 day, vac oven 60° C.): α dry
XRPD Form after drying ([2]; vac oven 60-65° C., 3 days, listed as α dry): α dry
Solid form after vacuum drying ([2]; vacuum dried (Table 1 column), listed as α dry): α dry
Post-moisture sorption/desorption XRPD form ([5]; listed as α dry): α dry

Structure (SMILES): CO[C@H]1/C=C/O[C@@]2(C)Oc3c(C)c(O)c4c(O)c(c5c(nc6cc(C)ccn65)c4c3C2=O)NC(=O)/C(C)=C\C=C\[C@H](C)[C@H](O)[C@@H](C)[C@@H](O)[C@@H](C)[C@H](OC(C)=O)[C@@H]1C [Form η]
XRPD Form after drying ([2]; vac oven, 40° C., 1 day): remained unchanged
XRPD Form after drying ([2]; vac oven, 40° C., 1 day, listed as η): η
Solid form after vacuum drying ([2]; vacuum dried (Table 1 column), listed as η): η

Continued, in another order:

Final Form (XRPD) ([1]; 43% RH, 3 days): Form γ
Final Form (XRPD) ([1]; 43% RH, 3 days, listed as ζ): γ
Final Form (XRPD) ([1]; 58% RH, 3 days): Form γ-1 (ζ)
Final Form (XRPD) ([1]; 75% RH, 3 days): Form γ-1 (ζ)
Final Form (XRPD) ([1]; stability chamber, 75% RH at 40° C., 1 day): ζ + γ^e
XRPD Form after drying ([2]; air dry): γ
XRPD Form after drying ([2]; open vial in hood): γ
XRPD Form after storage ([2]; stored in refrigerator 3 weeks): ζ
XRPD Form after drying ([2]; vac dry): γ + η
XRPD Form after drying ([2]; vac oven, 40° C., 1 day): remained unchanged
XRPD Form after drying ([2]; vac oven, 45° C., 2 days): η
XRPD Form after drying ([2]; vac oven, ambient, 1 day): Form η
XRPD Form after drying ([2]; vac oven, ambient, 1 day, listed as ζ): η
Solid form after vacuum drying ([2]; vacuum dried (Table 1)): η or and γ + η
Structure (SMILES): CO[C@H]1/C=C/O[C@@]2(C)Oc3c(C)c(O)c4c(O)c(c5c(nc6cc(C)ccn65)c4c3C2=O)NC(=O)/C(C)=C\C=C\[C@H](C)[C@H](O)[C@@H](C)[C@@H](O)[C@@H](C)[C@H](OC(C)=O)[C@@H]1C [Form ζ]
Final Form (XRPD) ([1]; 94% RH, 3 days): Form β+γ-1 (ζ); also recorded: Form β30 γ-1 (ζ)

XRPD Result after stressing ([3]; DCM, VD w/ IPE, 11 days): amorphous
XRPD Result after stressing ([3]; MEK, VD w/ IPE, 11 days): amorphous
Form obtained in vapor diffusion experiment ([3]; methanol): Form β
Form obtained in vapor diffusion experiment ([3]; tetrahydrofuran): Form β
XRPD Result after stressing ([3]; toluene, VS, RT, 6 days, listed as Rifaximin, Amorphous): amorphous
XRPD Result after stressing ([3]; toluene, VS, RT, 6 days, listed as amorphous material): no peaks by XRPD
XRPD Result after stressing ([3]; water, VS, RT, 15 days): amorphous
DVS weight gain from 5-95% RH [4, 7]: 8.364% eight gain from 5-95% RH
DVS weight loss at 5% RH [4, 7]: 0.100% weight loss at 5% RH
DVS weight loss from 95-5% RH [4, 7]: 10.989% weight loss from 95-5% RH
DVS weight loss at 5% RH ([4]; second sample of Table 3 (DSC endo 79/204: crash precipitation from ethyl acetate with heptane)): 1.606% weight loss at 5% RH
DVS weight gain from 5-95% RH [4, 8]: 7.843% weight gain from 5-95% RH
DVS weight loss from 95-5% RH [4, 8]: 9.172% weight loss from 95-5% RH
Final Form (XRPD) ([1]; 43% RH, 5 days): amorphous
Final Form (XRPD) ([1]; 43% RH, 5 days, listed as Amorphous): amorphous
Final Form (XRPD) ([1]; 43% RH, 5 days, listed as amorphous rifaximin): remained amorphous
Final Form (XRPD) ([1]; 58% RH, 5 days): amorphous
Final Form (XRPD) ([1]; 58% RH, 8 days): remained amorphous
RH stability: solid form after exposure, 58% RH ([1]; 58% RH): am
Final Form (XRPD) ([1]; 75% RH, 2 days, listed as amorphous rifaximin): remained amorphous
Final Form (XRPD) ([1]; 75% RH, 5 days): amorphous
RH stability: solid form after exposure, 75% RH ([1]; 75% RH): am
wt loss from 95 to 5% RH ([5]; listed as Rifaximin Amorphous): 11.3% wt loss from 95 to 5% RH
wt loss upon equilibration at 5% RH ([5]; listed as Rifaximin Amorphous): 0.7% wt loss upon equilibration at 5% RH
Hygroscopicity [5]: hygroscopic
wt gain from 5 to 95% RH ([5]; listed as Amorphous rifaximin): 11.6%
wt gain from 5 to 95% RH ([5]; listed as Rifaximin Amorphous): 11.6% wt gain from 5 to 95% RH
Post-moisture sorption/desorption XRPD form ([5]; listed as Amorphous): amorphous
Post-moisture sorption/desorption XRPD form ([5]; listed as Amorphous rifaximin): amorphous
Post-moisture sorption/desorption XRPD form ([5]; listed as Rifaximin Amorphous): amorphous
Structure (SMILES): CO[C@H]1/C=C/O[C@@]2(C)Oc3c(C)c(O)c4c(O)c(c5c(nc6cc(C)ccn65)c4c3C2=O)NC(=O)/C(C)=C\C=C\[C@H](C)[C@H](O)[C@@H](C)[C@@H](O)[C@@H](C)[C@H](OC(C)=O)[C@@H]1C [amorphous]

Final Form (XRPD) ([1]; P2O5, 4 days): α dry
Structure (SMILES): CO[C@H]1/C=C/O[C@@]2(C)Oc3c(C)c(O)c4c(O)c(c5c(nc6cc(C)ccn65)c4c3C2=O)NC(=O)/C(C)=C\C=C\[C@H](C)[C@H](O)[C@@H](C)[C@@H](O)[C@@H](C)[C@H](OC(C)=O)[C@@H]1C [Form α, reference compound]

XRPD Result after milling [6]: amorphous
Structure (SMILES): CO[C@H]1/C=C/O[C@@]2(C)Oc3c(C)c(O)c4c(O)c(c5c(nc6cc(C)ccn65)c4c3C2=O)NC(=O)/C(C)=C\C=C\[C@H](C)[C@H](O)[C@@H](C)[C@@H](O)[C@@H](C)[C@H](OC(C)=O)[C@@H]1C [crash amorphous rifaximin]

Hygroscopicity (DVS) ([4]; 5 to 95% relative humidity): moderately hygroscopic
DVS uptake of water (weight gain) ([4]; from 5 to 95% relative humidity): approximately 8%
Crystallization of post-DVS sample ([4]; post-DVS): Crystallization was not observed
Structure (SMILES): CO[C@H]1/C=C/O[C@@]2(C)Oc3c(C)c(O)c4c(O)c(c5c(nc6cc(C)ccn65)c4c3C2=O)NC(=O)/C(C)=C\C=C\[C@H](C)[C@H](O)[C@@H](C)[C@@H](O)[C@@H](C)[C@H](OC(C)=O)[C@@H]1C [lyophilized amorphous rifaximin]
